EC50 data for 18 compounds are collected here from patent US9133115B2 (ACHILLION PHARMACEUTICALS, INC., priority 2008, dated 2015).

The experiment has as its system HCV replicon. Put plainly: HCV replicon replication assay (NPT ELISA) in Huh-7 replicon-containing cells. Format: cell-based. The note with it: Hepatitis C virus, 72 h; HCV replicon in Huh-7 cells, three days incubation; read-out: EC50. In short, it runs like this: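 Replication was scored by capture ELISA of neomycin phosphotransferase, whose level tracks replicon replication, after graded compound treatment. The cells were Huh-7 harbouring an HCV-IRES/neo/EMCV-IRES/NS3–NS5B/3′-NTR replicon, plated at 6000-7500 cells/well and dosed 24 h later at 60-70% confluence; interferon alpha was the positive control.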
Regarding `COc1ccc2c(O[C@@H]3C[C@@H](C(=O)N[C@H](C(=O)NS(=O)(=O)C4CC4)C(C)(C)C)N(C(=O)[C@@H](CC(=O)N4CCCCC4)C(C)(C)C)C3)cc(-c3ccccc3)nc2c1` [Compound 115, (2S,4R)-1-((S)-2-tert-butyl-4-oxo-4-(piperidin-1-yl)butanoyl)-N-((S)-1-(cyclopropanesulfon-amido)-3,3-dimethyl-1-oxobutan-2-yl)-4-(7-methoxy-2-phenylquinolin-4-yloxy)pyrrolidine-2-carboxamide], the concentration for a half-maximal effect (EC50) is 1 to 10 µM.
Under `CC[C@@H](NC(=O)[C@@H]1C[C@@H](Oc2cc(-c3ccccc3)nc3cc(OC)ccc23)CN1C(=O)[C@@H](CC(=O)N1CCCCC1)C(C)(C)C)C(=O)NS(=O)(=O)C1CC1` [Compound 116, (2S,4R)-1-((S)-2-tert-butyl-4-oxo-4-(piperidin-1-yl)butanoyl)-N-((R)-1-(cyclopropanesulfon-amido)-1-oxobutan-2-yl)-4-(7-methoxy-2-phenylquinolin-4-yloxy)pyrrolidine-2-carboxamide] stands 1 to 10 µM.
With `CCC[C@@H](NC(=O)[C@@H]1C[C@@H](Oc2cc(-c3ccccc3)nc3cc(OC)ccc23)CN1C(=O)[C@@H](CC(=O)N1CCCCC1)C(C)(C)C)C(=O)NS(=O)(=O)C1CC1` [Compound 117, (2S,4R)-1-((S)-2-tert-butyl-4-oxo-4-(piperidin-1-yl)butanoyl)-N-((R)-1-(cyclopropanesulfon-amido)-1-oxopentan-2-yl)-4-(7-methoxy-2-phenylquinolin-4-yloxy)pyrrolidine-2-carboxamide] the figure was 1 to 10 µM; with `COc1ccc2c(O[C@@H]3C[C@@H](C(=O)N[C@@H](C(=O)NS(=O)(=O)C4CC4)C(C)C)N(C(=O)[C@@H](CC(=O)N4CCCCC4)C(C)(C)C)C3)cc(-c3ccccc3)nc2c1` [Compound 118, (2S,4R)-1-((S)-2-tert-butyl-4-oxo-4-(piperidin-1-yl)butanoyl)-N-((R)-1-(cyclopropanesulfon-amido)-3-methyl-1-oxobutan-2-yl)-4-(7-methoxy-2-phenylquinolin-4-yloxy)pyrrolidine-2-carboxamide], 1 to 10 µM; with `C=C[C@@H]1C[C@]1(NC(=O)[C@@H]1C[C@@H](Oc2cc(-c3ccccc3)nc3cc(OC)ccc23)CN1C(=O)[C@@H](CC(=O)N1CCC(F)(F)CC1)C(C)(C)C)C(=O)NS(=O)(=O)C1CC1` [Compound 119, (2S,4R)-1-((S)-2-tert-butyl-4-(4,4-difluoropiperidin-1-yl)-4-oxobutanoyl)-N-((1R,2S)-1-(cyclopropylsulfonyl-carbamoyl)-2-vinylcyclopropyl)-4-(7-methoxy-2-phenylquinolin-4-yloxy)pyrrolidine-2-carboxamide], < 1 µM.
With `C=C[C@@H]1C[C@]1(NC(=O)[C@@H]1C[C@@H](Oc2cc(-c3ccccc3)nc3cc(OC)ccc23)CN1C(=O)[C@@H](CC(=O)N1CCCCC1)C(C)(C)C)C(=O)NS(=O)(=O)CC` [Compound 120, (2S,4R)-1-((S)-2-tert-butyl-4-oxo-4-(piperidin-1-yl)butanoyl)-N-((1R,2S)-1-(ethyl-sulfonylcarbamoyl)-2-vinylcyclopropyl)-4-(7-methoxy-2-phenylquinolin-4-yloxy)pyrrolidine-2-carboxamide] the figure was < 1 µM.
Regarding `C=C[C@@H]1C[C@]1(NC(=O)[C@@H]1C[C@@H](Oc2cc(-c3ccccc3)nc3cc(OC)ccc23)CN1C(=O)[C@@H](CC(=O)N1CCCCC1)C1CC1)C(=O)NS(=O)(=O)C1CC1` [Compound 121, (2S,4R)-1-((S)-2-cyclopropyl-4-oxo-4-(piperidin-1-yl)butanoyl)-N-((1R,2S)-1-(cyclopropylsulfonyl-carbamoyl)-2-vinylcyclopropyl)-4-(7-methoxy-2-phenylquinolin-4-yloxy)pyrrolidine-2-carboxamide], the EC50 was < 1 µM.
For the compound `C=C[C@@H]1C[C@]1(NC(=O)[C@@H]1C[C@@H](Oc2nc(-c3ccccn3)nc3ccsc23)CN1C(=O)[C@@H](CC(=O)N1CCCCC1)C(C)(C)C)C(=O)NS(=O)(=O)C1CC1` [Compound 122, (2S,4R)-1-((S)-2-tert-butyl-4-oxo-4-(piperidin-1-yl)butanoyl)-N-((1R,2S)-1-(cyclopropylsulfonyl-carbamoyl)-2-vinylcyclopropyl)-4-(2-(pyridin-2-yl)thieno[3,2-d]pyrimidin-4-yloxy)pyrrolidine-2-carboxamide], the EC50 is 1 to 10 µM.
As to `C=C[C@@H]1C[C@]1(NC(=O)[C@@H]1C[C@@H](OC(=O)N2c3ccccc3Sc3ccccc32)CN1C(=O)[C@@H](CC(=O)N1CCCCC1)C(C)(C)C)C(=O)NS(=O)(=O)C1CC1` [Compound 123, (3R,5S)-1-((S)-2-tert-butyl-4-oxo-4-(piperidin-1-yl)butanoyl)-5-((1R,2S)-1-(cyclopropylsulfonyl-carbamoyl)-2-vinyl-cyclopropylcarbamo-yl)pyrrolidin-3-yl 10H-phenothiazine-10-carboxylate], the EC50 lay in the range of 1 to 10 µM.
With `C=C[C@@H]1C[C@]1(NC(=O)[C@@H]1C[C@@H](Oc2cc(-c3ccccc3)nc3cc(OC)ccc23)CN1C(=O)[C@@H](CC(=O)N1CCCCC1)CC1CC1)C(=O)NS(=O)(=O)C1CC1` [Compound 124, (2S,4R)-1-((R)-2-(cyclopropylmethyl)-4-oxo-4-(piperidin-1-yl)butanoyl)-N-((1R,2S)-1-(cyclopropylsulfonyl-carbamoyl)-2-vinylcyclopropyl)-4-(7-methoxy-2-phenylquinolin-4-yloxy)pyrrolidine-2-carboxamide] the figure was < 1 µM.
With `C=C[C@@H]1C[C@]1(NC(=O)[C@@H]1C[C@@H](Oc2cc(-c3ccccc3)nc3cc(OC)ccc23)CN1C(=O)[C@@H](CC(=O)N1CCCCC1c1nc2cc(F)ccc2[nH]1)C(C)(C)C)C(=O)NS(=O)(=O)C1CC1` (stereo partly drawn) [Compound 125, (2S,4R)-1-((2S)-2-tert-butyl-4-(2-(5-fluoro-1H-benzo[d]imidazol-2-yl)piperidin-1-yl)-4-oxobutanoyl)-N-((1R,2S)-1-(cyclo-propylsulfonyl-carbamoyl)-2-vinylcyclopropyl)-4-(7-methoxy-2-phenylquinolin-4-yloxy)pyrrolidine-2-carboxamide] the figure was < 1 µM; with `C=C[C@@H]1C[C@]1(NC(=O)[C@@H]1C[C@@H](Oc2cc(-c3ccccc3)nc3cc(OC)ccc23)CN1C(=O)[C@@H](CC(=O)n1c(C2CCCCN2)nc2cc(F)ccc21)C(C)(C)C)C(=O)NS(=O)(=O)C1CC1` (stereo partly drawn) [Compound 126, (2S,4R)-1-((2S)-2-tert-butyl-4-(5-fluoro-2-(piperidin-2-yl)-1H-benzo[d]imidazol-1-yl)-4-oxobutanoyl)-N-((1R,2S)-1-(cyclo-propylsulfonyl-carbamoyl)-2-vinylcyclopropyl)-4-(7-methoxy-2-phenylquinolin-4-yloxy)pyrrolidine-2-carboxamide], < 1 µM.
Under `CC(C)(C)[C@H](CC(=O)N1CCCCC1)C(=O)N1C[C@H](n2cnc3ccccc32)C[C@H]1C(=O)NCC(=O)NS(=O)(=O)C1CC1` [Compound 127, (2S,4R)-4-(1H-benzo[d]imidazol-1-yl)-1-((S)-2-tert-butyl-4-oxo-4-(piperidin-1-yl)butanoyl)-N-(2-(cyclopropane-sulfonamido)-2-oxoethyl)pyr-rolidine-2-carboxamide] stands 1 to 10 µM.
For the compound `C=C[C@@H]1C[C@]1(NC(=O)[C@@H]1C[C@@H](n2nnc(-c3ccccc3)c2-c2ccccc2)CN1C(=O)[C@@H](CC(=O)N1CCCCC1)C(C)(C)C)C(=O)NS(=O)(=O)C1CC1` [Compound 128, (2S,4R)-1-((S)-2-tert-butyl-4-oxo-4-(piperidin-1-yl)butanoyl)-N-((1R,2S)-1-(cyclo-propylsulfonyl-carbamoyl)-2-vinylcyclopropyl)-4-(4,5-diphenyl-1H-1,2,3-triazol-1-yl)pyrrolidine-2-carboxamide], the EC50 fell in the range of 1 to 10 µM.
Consider `C=C[C@@H]1C[C@]1(NC(=O)[C@@H]1C[C@@H](OC(=O)N(c2ccccc2)c2ccccc2)CN1C(=O)[C@@H](CC(=O)N1CCCCC1)C(C)(C)C)C(=O)NS(=O)(=O)C1CC1` [Compound 129, (3R,5S)-1-((S)-2-tert-butyl-4-oxo-4-(piperidin-1-yl)butanoyl)-5-((1R,2S)-1-(cyclopropylsulfon-ylcarbamoyl)-2-vinylcyclopropyl-carbamoyl)pyr-rolidin-3-yl diphenylcarbamate], for which the EC50 is 1 to 10 µM.
For the compound `C=C[C@@H]1C[C@]1(NC(=O)[C@@H]1C[C@@H](OC(=O)N2c3ccccc3CCc3ccccc32)CN1C(=O)[C@@H](CC(=O)N1CCCCC1)C(C)(C)C)C(=O)NS(=O)(=O)C1CC1` [Compound 130, (3R,5S)-1-((S)-2-tert-butyl-4-oxo-4-(piperidin-1-yl)butanoyl)-5-((1R,2S)-1-(cyclo-propylsulfonyl-carbamoyl)-2-vinyl-cyclopropylcarbamo-yl)pyrrolidin-3-yl 10,11-dihydro-5H-dibenzo[b,f]azepine-5-carboxylate], the EC50 lay within 1 to 10 µM.
With `C=C[C@@H]1C[C@]1(NC(=O)[C@@H]1C[C@@H](OC(=O)N2c3ccccc3C=Cc3ccccc32)CN1C(=O)[C@@H](CC(=O)N1CCCCC1)C(C)(C)C)C(=O)NS(=O)(=O)C1CC1` [Compound 131, (Z)-((3R,5S)-1-((S)-2-tert-butyl-4-oxo-4-(piperidin-1-yl)butanoyl)-5-((1R,2S)-1-(cyclopropylsulfon-ylcarbamoyl)-2-vinylcyclopropyl-carbamoyl)pyr-rolidin-3-yl)5H-dibenzo[b,f]azepine-5-carboxylate] the figure was 1 to 10 µM; with `C=C[C@@H]1C[C@]1(NC(=O)[C@@H]1C[C@H](Oc2cc(-c3ccccc3)nc3cc(OC)ccc23)CN1C(=O)[C@@H](CC(=O)N1CCCCC1)C(C)(C)C)C(=O)NS(=O)(=O)C1CC1` [Compound 132, (2S,4S)-1-((S)-2-tert-butyl-4-oxo-4-(piperidin-1-yl)butanoyl)-N-((1R,2S)-1-(cyclo-propylsulfonyl-carbamoyl)-2-vinylcyclopropyl)-4-(7-methoxy-2-phenylquinolin-4-yloxy)pyrrolidine-2-carboxamide], < 1 µM.
